The text below walks through data of patent publication US20160242416A1, “FUNGICIDAL ISOXAZOLINE CARBINOLS” (E I DU PONT DE NEMOURS AND COMPANY, priority 2015, published 2016).

Test [1] concerns Puccinia recondita f sp. tritici. The test is described as follows: Test F: wheat leaf rust, preventive spray on wheat seedlings. The settings on record: 10 ppm; wheat leaf rust; 100 = 100% disease control, 0 = no control.
In test [2] the test system is Stagonospora nodorum. Kind of test: Test D: wheat glume blotch, preventive spray on wheat seedlings. The settings on record: 10 ppm; wheat glume blotch; 100 = 100% disease control, 0 = no control.
Test [3] relates to Botrytis cinerea. Kind of test: Test B: gray mold, preventive spray on tomato seedlings. Particulars: 10 ppm; gray mold on tomato; 100 = 100% disease control, 0 = no control.
Test [4] concerns Zymoseptoria tritici. Kind of test: Test E: wheat leaf blotch, preventive spray on wheat seedlings. The settings on record: 10 ppm; wheat leaf blotch; 100 = 100% disease control, 0 = no control.
Text: (§1) General protocol for preparing test solutions for Tests A-G: the test compounds were first dissolved in acetone in an amount equal to 3% of the final volume and then suspended at the desired concentration (in ppm) in acetone and purified water (50/50 mix by volume) containing 250 ppm of the surfactant PEG400 (polyhydric alcohol esters). The resulting test suspensions were then used in Tests A-G. Compounds were sprayed at a concentration of 50 ppm (*) or 10 ppm to the point of run-off on the test plants, the equivalent of a rate of 200 g/ha or 40 g/ha, respectively.
The test solution was sprayed to the point of run-off on wheat seedlings. The following day the seedlings were inoculated with a spore suspension of Zymoseptoria tritici (the causal agent of wheat leaf blotch) and incubated in a saturated atmosphere at 24° C. for 48 h, and then moved to a growth chamber at 20° C. for 17 days, after which time visual disease ratings were made.
(§2) Compounds with an asterisks (*) were applied at a concentration of 50 ppm, otherwise test solutions were applied at 10 ppm.
The subject of test [5] is Erysiphe graminis f sp. tritici. Kind of test: Test G: wheat powdery mildew, preventive spray on wheat seedlings. The settings on record: 10 ppm; wheat powdery mildew; 100 = 100% disease control, 0 = no control.
Text: as §1
The test solution was sprayed to the point of run-off on wheat seedlings. The following day the seedlings were inoculated with a spore dust of Erysiphe graminis f sp. tritici, (the causal agent of wheat powdery mildew) and incubated in a growth chamber at 20° C. for 8 days, after which time visual disease ratings were made.
as §2

For the compound `CC(C)(C)C(O)(Cn1cncn1)C1=NOC(COc2ccc3c(c2)OCO3)C1` (single isomer, unassigned) [Compound 46], the “Test F rating (% disease control)” value in test [1] stood at 85%. Further, the “Test D rating (% disease control)” value in test [2] is 76%. Besides, the “Test B rating (% disease control)” value in test [3] worked out at 19%. The “Test E rating (% disease control)” value in test [4] stood at 0%. Also, in test [5], the “Test G rating (% disease control)” value came out at 73%.
Taken in the same sequence, the figures for `Cn1nc(C(F)(F)F)cc1OCC1CC(C(O)(Cn2cncn2)C(C)(C)C)=NO1` (single isomer, unassigned) [Compound 47] were 76%, 0%, 19%, 3% and 84%.
Taken in the same sequence, the figures for `CC(C)(C)C(O)(Cn1cncn1)C1=NOC(Cn2ccc(C(F)(F)F)n2)C1` (single isomer, unassigned) [Compound 48] were 99%, 94%, 0%, 0% and 99%.
Taken in the same sequence, the figures for `CC(C)(C)C(O)(Cn1cncn1)C1=NOC(Cn2ccc(C(F)(F)F)n2)C1` (single isomer, unassigned) [Compound 49] were 99%, 82%, 11%, 0% and 99%.
For `OC(Cn1cncn1)(C1=NOC(CSc2ccccc2)C1)c1ccc(Cl)cc1` (single isomer, unassigned) [Compound 50], the “Test F rating (% disease control)” value in test [1] was determined as 99%. Also, the “Test D rating (% disease control)” value in test [2] worked out at 87%. The “Test B rating (% disease control)” value in test [3] stood at 19%. In addition, the “Test E rating (% disease control)” value in test [4] turned out to be 3%. For the same compound, the “Test G rating (% disease control)” value in test [5] came to 94%.
For `OC(Cn1cncn1)(C1=NOC(CSc2ccccc2)C1)c1ccc(Cl)cc1` (single isomer, unassigned) [Compound 51], in that order: 0%, 89%, 16%, 1% and 81%.
For `CC(C)(C)C(O)(Cn1cncn1)C1=NOC(Cc2ccc(Br)cc2)C1` (single isomer, unassigned) [Compound 52], in that order: 100%, 100%, 98%, 4% and 100%.
Taken in the same sequence, the figures for `CC(C)(C)C(O)(Cn1cncn1)C1=NOC(Cc2ccc(Br)cc2)C1` (single isomer, unassigned) [Compound 53] were 100%, 99%, 70%, 20% and 99%.
As for `OC(Cn1cncn1)(C1=NOC(Cc2ccc(Br)cc2)C1)c1ccc(Cl)cc1` (single isomer, unassigned) [Compound 54], the “Test F rating (% disease control)” value in test [1] came out at 100%. Further, the “Test D rating (% disease control)” value in test [2] is recorded as 87%. In addition, the “Test B rating (% disease control)” value in test [3] was found to be 0%. Besides, the “Test E rating (% disease control)” value in test [4] is reported as 0%. In addition, the “Test G rating (% disease control)” value in test [5] turned out to be 99%.
Regarding `OC(Cn1cncn1)(C1=NOC(Cc2ccc(Br)cc2)C1)c1ccc(Cl)cc1` (single isomer, unassigned) [Compound 55], the “Test F rating (% disease control)” value in test [1] is recorded as 99%. Besides, the “Test D rating (% disease control)” value in test [2] is given as 73%. In addition, the “Test B rating (% disease control)” value in test [3] turned out to be 0%. Moreover, in test [4], the “Test E rating (% disease control)” value amounted to 2%. Further, in test [5], the “Test G rating (% disease control)” value came out at 99%.
In the case of `Cn1nc(C(F)(F)F)cc1OCC1CC(C(O)(Cn2cncn2)C(C)(C)C)=NO1` (single isomer, unassigned) [Compound 56], the “Test F rating (% disease control)” value in test [1] amounted to 97%. In addition, the “Test D rating (% disease control)” value in test [2] came to 20%. For the same compound, the “Test B rating (% disease control)” value in test [3] is reported as 0%. Besides, the “Test E rating (% disease control)” value in test [4] stood at 0%. Further, the “Test G rating (% disease control)” value in test [5] stood at 94%.
For the compound `OC(Cn1cncn1)(C1=NOC(COCc2ccccc2)C1)c1ccc(Cl)cc1` (single isomer, unassigned) [Compound 57], the “Test F rating (% disease control)” value in test [1] was determined as 97%. The “Test D rating (% disease control)” value in test [2] is reported as 0%. In addition, the “Test B rating (% disease control)” value in test [3] stood at 0%. The “Test E rating (% disease control)” value in test [4] is listed as 0%. In test [5], the “Test G rating (% disease control)” value turned out to be 97%.
Turning to `OC(Cn1cncn1)(C1=NOC(COCc2ccccc2)C1)c1ccc(Cl)cc1` (single isomer, unassigned) [Compound 58], in test [1], the “Test F rating (% disease control)” value amounted to 0%. Also, the “Test D rating (% disease control)” value in test [2] is on record as 0%. Besides, the “Test B rating (% disease control)” value in test [3] amounted to 0%. For the same compound, the “Test E rating (% disease control)” value in test [4] was 0%. Also, the “Test G rating (% disease control)” value in test [5] is 68%.
Consider `CC(C)(C)C(O)(Cn1cncn1)C1=NOC(COCc2ccccc2)C1` (single isomer, unassigned) [Compound 59], for which the “Test F rating (% disease control)” value in test [1] was found to be 80%. For the same compound, the “Test D rating (% disease control)” value in test [2] is 92%. Besides, in test [3], the “Test B rating (% disease control)” value is reported as 0%. The “Test E rating (% disease control)” value in test [4] worked out at 2%. In addition, in test [5], the “Test G rating (% disease control)” value is given as 89%.
`CC(C)(C)C(O)(Cn1cncn1)C1=NOC(COCc2ccccc2)C1` (single isomer, unassigned) [Compound 60]: in test [1], the “Test F rating (% disease control)” value came to 28%. In addition, the “Test D rating (% disease control)” value in test [2] was determined as 73%. In test [3], the “Test B rating (% disease control)” value amounted to 0%. The “Test E rating (% disease control)” value in test [4] was found to be 3%. In addition, the “Test G rating (% disease control)” value in test [5] is 90%.
For `OC(Cn1cncn1)(C1=NOC(COc2ccc(OCc3ccccc3)cc2)C1)c1ccc(Cl)cc1` (single isomer, unassigned) [Compound 69], in that order: 100%, 38%, 27%, 25% and 94%.
For `OC(Cn1cncn1)(C1=NOC(COc2ccc(OCc3ccccc3)cc2)C1)c1ccc(Cl)cc1` (single isomer, unassigned) [Compound 70], in that order: 9%, 47%, 28%, 0% and 76%.
For `CC(C)(C)C(O)(Cn1cncn1)C1=NOC(COc2ccc(OCc3ccccc3)cc2)C1` (single isomer, unassigned) [Compound 71], in that order: 26%, 0%, 0%, 1% and 94%.
As to `CC(C)(C)C(O)(Cn1cncn1)C1=NOC(COc2ccc(OCc3ccccc3)cc2)C1` (single isomer, unassigned) [Compound 72], in test [1], the “Test F rating (% disease control)” value came to 0%. In test [2], the “Test D rating (% disease control)” value was found to be 0%. In test [3], the “Test B rating (% disease control)” value is listed as 19%. Besides, the “Test E rating (% disease control)” value in test [4] turned out to be 0%. Also, the “Test G rating (% disease control)” value in test [5] was 56%.
Regarding `CC(C)(C)C(O)(Cn1cncn1)C1=NOC(CSc2ccccc2)C1` (single isomer, unassigned) [Compound 73], the “Test F rating (% disease control)” value in test [1] came out at 9%. Further, the “Test D rating (% disease control)” value in test [2] was found to be 62%. For the same compound, the “Test B rating (% disease control)” value in test [3] is listed as 25%. Besides, in test [4], the “Test E rating (% disease control)” value is 0%. Moreover, in test [5], the “Test G rating (% disease control)” value turned out to be 56%.
On to `CC(C)(C)C(O)(Cn1cncn1)C1=NOC(CSc2ccccc2)C1` (single isomer, unassigned) [Compound 74], for which, in test [1], the “Test F rating (% disease control)” value worked out at 0%. Moreover, in test [2], the “Test D rating (% disease control)” value is 0%. Besides, the “Test B rating (% disease control)” value in test [3] is on record as 44%. The “Test E rating (% disease control)” value in test [4] was 13%. The “Test G rating (% disease control)” value in test [5] is 56%.
Turning to `CC(C)(C)CC1CC(C(O)(Cn2cncn2)c2ccc(Cl)cc2)=NO1` (single isomer, unassigned) [Compound 75], in test [1], the “Test F rating (% disease control)” value is listed as 90%. In addition, the “Test D rating (% disease control)” value in test [2] is 58%. In test [3], the “Test B rating (% disease control)” value is reported as 0%. For the same compound, the “Test E rating (% disease control)” value in test [4] stood at 0%. In addition, the “Test G rating (% disease control)” value in test [5] was 97%.
`CC(C)(C)CC1CC(C(O)(Cn2cncn2)c2ccc(Cl)cc2)=NO1` (single isomer, unassigned) [Compound 76]: in test [1], the “Test F rating (% disease control)” value is listed as 0%. Further, the “Test D rating (% disease control)” value in test [2] is 0%. Further, in test [3], the “Test B rating (% disease control)” value was determined as 0%. In addition, the “Test E rating (% disease control)” value in test [4] is recorded as 0%. In addition, in test [5], the “Test G rating (% disease control)” value is on record as 89%.
Take `CC(C)(C)CC1CC(C(O)(Cn2cncn2)C(C)(C)C)=NO1` (single isomer, unassigned) [Compound 77]: the “Test F rating (% disease control)” value in test [1] was determined as 0%. In addition, the “Test D rating (% disease control)” value in test [2] is 0%. Moreover, the “Test B rating (% disease control)” value in test [3] is recorded as 0%. For the same compound, the “Test E rating (% disease control)” value in test [4] was 0%. Besides, the “Test G rating (% disease control)” value in test [5] turned out to be 13%.
